Test results published in US10086090B2, “Indocyanine compound, synthesis method and purification method thereof, diagnostic composition using the indocyanine compound, and device for measuring biokinetics and device for visualizing circulation using the diagnostic composition” (NATIONAL UNIVERSITY CORPORATION MIE UNIVERSITY, priority 2010, dated 2018).

How the values were obtained:
[1] = in DMSO, at 25° C.; cited from earlier work
[2] = cited from earlier work
[3] = Molecule association in aqueous solution (optical absorption spectrum); format: physicochemical; settings: 0.01 mM to 0.1 mM aqueous solutions, 25° C., absorption 600 nm to 1000 nm
Protocol: The molecule association of ICG and the cyclodextrin-bonded indocyanine compounds of the present invention (the chemical formulae 16, 20, 21, and 23 to 25) in an aqueous solution was studied. Each of 0.01 mM, 0.025 mM, 0.05 mM, and 0.1 mM aqueous solutions including ICG or the cyclodextrin-bonded indocyanine compound of the present invention (each chemical formula 16, 20, 21, and 23 to 25) was prepared, it was put in a quartz cell having a length of an optical path of 1 mm, and an optical absorption spectrum at 600 nm to 1000 nm was measured at 25° C.

[4] = Observation at blood vessel level (cremaster skin flap); format: in vivo; settings: rat, exposed blood vessel
Protocol: ICG or TK1 was administered in a state in which a blood vessel of a rat was directly exposed and observed by methods disclosed in Non Patent Documents 7 and 8 (FIG. 15), and a state of a cremaster skin flap after the exposure is shown in FIG. 16. ICG or TK1 was administered in the state in which the blood vessel was exposed, and the observation was performed. As a result, it was observed that ICG was unevenly distributed in the blood vessel, compared to TK1. […] In order to more precisely study it, photomicrographs of the blood vessel after the administration are shown in FIG. 17 (ICG) and FIG. 18 (TK1).

[5] = Ischemia model of lower limbs (ligation of right femoral artery); format: in vivo; settings: rat
Text: As apparent from the image view 12, the state in which the fluorescence was emitted in accordance with the blood flow was clear in the dorsal region of foot.

[6] = Solubility tests in water or physiological saline; format: physicochemical; settings: powder
Protocol: Solubility tests of ICG and the cyclodextrin-bonded indocyanine compounds of the present invention (the chemical formulae 16, 20, 21, and 23 to 25) in water or physiological saline were performed.

[7] = Observation of distribution in rat body (caudate vein administration, PDE camera); format: in vivo
Protocol: Left is a monochrome image through visible light, and right is a fluorescence image.
After Wistar male rat (9-week old, a body weight of 350 g) was ether-anesthetized, 0.1 mL of Nembutal was intraperitoneally administered using a 26 G needle to perform the anesthesia. A base of the rat's tail was wrapped tightly with a rubber band to prevent the flow of blood, and the caudate vein was secured with a 24 G Therflow needle and a peripheral line were secured by inserting a three-way stopcock and an extension tube. The rat was fixed on a flat stand in a supine position (FIG. 8). A PDE camera unit manufactured by Hamamatsu Photonics K.K. was set at exactly 16 cm from the body of the rat. When the whole body was extensively photographed, the distance was 20 cm. The observation range was an about range shown by black dots in FIG. 8. After that, ICG, TK1 or TK2 was administered in a concentration of 1 mM from the peripheral line secured. The administration amount was 0.1 mL. After 20 minutes from the administration, the fluorescence state of the abdominal cavity which was opened is shown in FIG. 9, and the fluorescence state (images at the maximum luminance) of the dorsal region of foot was shown in FIG. 12.
In addition, a time reaching the maximum fluorescence intensity value (Imax), Imax value and a time at which the value reached a half of the Imax value (t1/2) are shown in Table 1.

[8] = Luminance of dorsalis pedis in λ-carrageenin edema rats (acute inflammation experiment); format: in vivo, rat
Protocol: Rats (male, Wister rat) which were 10-week old and about 350 g were selected as a test animal (n=4). The rat was generally anesthetized with isoflurane, and 0.1 mL of 0.5% […] was injected to a left posterior footpad using a 26 G needle, thus resulting quick generation of edema on the foot. After 15 minutes, a volume of the left foot of the rat was measured using a rat footpad volume-measuring device (MK-101 CMP PLETHYSMOMETER manufactured by Muromachi Kikai Co., Ltd.).
After that, the isoflurane was off and the emergence of the rat was confirmed. After Von Frey test was performed, the rat was generally anesthetized with isoflurane again. […]
A moiety (ROI) to be measured by the PDE camera was set at a central part of the dorsalis pedis and light was turned off. […] After that, luminance was measured for one minute at 5 minute-intervals and the measurement was continued until 120 minutes from the infusion. […]
After 7 days, a Von Frey test was performed and then the rat was quickly generally anesthetized with isoflurane, and the volume of the left foot of the rat was measured by using the rat footpad volume-measuring device. […] After that, luminance was measured for one minute at 5 minute-intervals and the measurement was continued until 120 minutes from the infusion. […]

[9] = Fluorescence in blood (surface fluorescence spectrum); settings: 100 μM in blood (human), 25° C., 760 nm excitation
Protocol: The fluorescence of ICG and the cyclodextrin-bonded indocyanine compounds of the present invention (the chemical formulae 16, 20, 21, and 23 to 25) in blood was studied. ICG and the cyclodextrin-bonded indocyanine compounds of the present invention (the chemical formulae 16, 20, 21, and 23 to 25) were respectively dissolved in blood (human) in a concentration of 100 μM. The resulting blood was put in a triangular quartz cell at 25° C., which was excited with 760 nm excitation light (bandpass: 10 nm), and a surface fluorescence spectrum (bandpass: 10 nm) was measured. […] The cyclodextrin-bonded indocyanine compounds of the present invention, in particular, the compounds represented by the chemical formula 16 and the chemical formula 20 had respectively fluorescence intensities of 270 (arbitrary unit) and 190 (arbitrary unit), which were 4.7-fold and 3.3-fold of that of ICG. It could be considered that this is caused because the emission of light from the cyclodextrin-bonded indocyanine compound of the present invention was not hindered in the living body.

[10] = Fluorescence in aqueous solution; format: physicochemical; settings: 0.1 μM aqueous solution, 25° C., 720 nm excitation; relative to ICG 0.13 in DMSO
Protocol: The fluorescence of ICG and the cyclodextrin-bonded indocyanine compounds of the present invention (the chemical formulae 16, 20, 21, and 23 to 25) in an aqueous solution was studied. A 0.1 μM aqueous solution including ICG or each of the cyclodextrin-bonded indocyanine compounds of the present invention (the chemical formulae 16, 20, 21, and 23 to 25) was put in a 1 cm square quartz cell at 25° C., which was excited with 720 nm excitation light (bandpass: 10 nm), and a fluorescence spectrum (bandpass: 10 nm) was measured. A fluorescence efficiency was calculated based on a fluorescence efficiency of ICG, 0.13 (in DMSO, at 25° C.). […] The fluorescence quantum efficiencies thereof were respectively 2.6-fold and 2-fold of that of ICG.

[11] = rat dorsal region of foot, 1 mM 0.1 mL caudate vein

## CC1(C)C(/C=C/C=C/C=C/C=C2\N(CCCCS(=O)(=O)O)c3ccc4ccccc4c3C2(C)C)=[N+](CCCCS(=O)(=O)[O-])c2ccc3ccccc3c21 [ICG, indocyanine green]
[1]
  fluorescence efficiency (reference value): 0.13
[2]
  organ of accumulation (as already known): highly accumulated in liver
[3]
  molecule association called H-aggregation: occurred
[4]
  transfer from the blood vessel into the interstitial tissue fluid: hardly transferred from the blood vessel into the interstitial tissue fluid
[5]
  fluorescence in the ischemia area: the fluorescence was not observed in the ischemia area
[6]
  dissolving in water or physiological saline (need for vibration-stirring): About one minute violent vibration-stirring was necessary
[7]; Wistar rat, 1 mM 0.1 mL caudate vein, 20 minutes after administration, abdominal cavity opened
  organ of main accumulation: mainly accumulated in the liver
[7]; male, Wistar, intravenous, 0.1 mL of 1 mM solution, rat dorsal region of foot, 1 mM 0.1 mL caudate vein, read-out: t1/2 (time at which the value reached a half of the Imax value)
  half-life: 2.3 min
[7]; rat dorsal region of foot
  time after administration until fluorescence intensity was reduced to about initial value: less than 10 minutes
[7]; [11]
  Imax* (maximum fluorescence intensity value): 124
  Time for Imax (time reaching the maximum fluorescence intensity value): 0.5 min
[8]; rat dorsalis pedis, 0.1 mL caudate vein
  time for luminance in ROI to decrease to the base line: about 10 minutes
[8]; rat, dye infused after λ-carrageenin injection, interstitial tissue phase
  luminance change of dorsalis pedis, λ-carrageenin group versus control: the difference in the luminance was not observed
[9]
  fluorescence intensity at the maximum fluorescence wavelength: 58 arbitrary unit
[10]
  fluorescence quantum efficiency: 0.021
